Data: ChEMBL document CHEMBL4342466, “Novel, Self-Assembling Dimeric Inhibitors of Human β Tryptase” (J Med Chem, 2020)
Active and inactive are the calls of the source. The rule behind the calls is not given here.

Assays:
[1] = Stability in human liver microsomes assessed as parent compound remaining at 15 uM in presence of UDPGA incubated for 60 mins; format: ADME, Microsome; conditions: for remaining at 1 h, 15 µM: liver microsomes, read-out: Stability; for Stability: microsomes, 1 h, 15 µM
[2] = Stability in human liver microsomes assessed as parent compound remaining at 15 uM in presence of NADPH incubated for 60 mins; format: ADME, Microsome; conditions: for remaining at 1 h, 15 µM: liver microsomes, read-out: Stability; for Stability: microsomes, 1 h, 15 µM
[3] = Stability in human liver microsomes assessed as parent compound remaining at 15 uM in absence of NADPH incubated for 60 mins; format: ADME, Microsome; conditions: for Stability: microsomes, 1 h, 15 µM; for remaining at 1 h, 15 µM: liver microsomes, read-out: Stability
[4] = Inhibition of human recombinant beta-tryptase pre-incubated for 3 hrs before N-tert-butoxycarbonyl-Gln-Ala-Arg-AMC substrate addition and measured every 30 secs for 15 mins by spectrometry
Tryptase beta-2 = biological target: T1, Tryptase beta-2 (Mus musculus, UniProt P21845); assay: Inhibition of mouse MCP6 pre-incubated for 3 hrs before N-tert-butoxycarbonyl-Gln-Ala-Arg-AMC substrate addition and measured every 30 secs for 15 mins by spectrometry
T1 sequence (P21845 whole entry): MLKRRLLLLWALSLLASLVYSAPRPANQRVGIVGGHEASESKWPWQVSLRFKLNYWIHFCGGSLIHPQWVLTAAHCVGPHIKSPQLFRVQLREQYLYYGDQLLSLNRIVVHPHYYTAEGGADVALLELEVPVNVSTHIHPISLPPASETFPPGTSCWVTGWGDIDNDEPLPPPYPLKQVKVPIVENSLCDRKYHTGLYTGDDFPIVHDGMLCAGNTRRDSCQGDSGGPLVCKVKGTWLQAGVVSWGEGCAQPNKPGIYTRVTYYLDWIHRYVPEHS

[5] = Time for Clast in C57BL/6 mouse at 50 mg/kg, po measured over 0.25 to 24 hrs by LC-MS/MS analysis; format: ADME, organism-based; conditions: in vivo
[6] = Half life in C57BL/6 mouse at 5 mg/kg, iv measured over 0.25 to 24 hrs by LC-MS/MS analysis; format: ADME, organism-based; conditions: in vivo
[7] = Time for Clast in C57BL/6 mouse at 5 mg/kg, iv measured over 0.25 to 24 hrs by LC-MS/MS analysis; format: ADME, organism-based; conditions: in vivo
[8] = Solubility of the compound; format: physicochemical
[9] = Tmax in C57BL/6 mouse at 50 mg/kg, po measured over 0.25 to 24 hrs by LC-MS/MS analysis; format: ADME, organism-based; conditions: in vivo
HMC1 [10] = assay: Inhibition of beta-tryptase in human HMC1 cells assessed as effect on A23187-induced degranulation; format: cell-based
HMC1 [11] = assay: Inhibition of beta-tryptase in human HMC1 cells assessed as effect on tryptase activity by measured cell lysis; format: cell-based
Homo sapiens = organism: Homo sapiens; assay: Inhibition of human recombinant beta-tryptase assessed as remaining enzyme activity at 10 uM pre-incubated for 3 hrs before N-tert-butoxycarbonyl-Gln-Ala-Arg-AMC substrate addition and measured after 8 hrs by spectrometry relative to control
Mus musculus = assay: Inhibition of tryptase activity in tumors of mouse xenografted with human HMC1 cells at 10 mg/kg, iv dosed at time 0 and again 24 hrs later and measured at 24 to 48 hrs after second dose; format: functional, organism-based
[12] = Lipophilicity, logD of the compound at pH 7.4; format: physicochemical; conditions: buffer
[13] = Stability in rat liver microsomes assessed as parent compound remaining at 15 uM in presence of NADPH incubated for 60 mins; format: ADME, Microsome; conditions: read-out: Stability
[14] = Dissociation constant, pKa of the compound (NH3*) by pH metric assay; format: physicochemical
[15] = Apparent permeability from apical to basolateral side in MDCK cells; format: ADME, cell-based, Canis lupus familiaris; conditions: dog
[16] = Stability in rat liver microsomes assessed as parent compound remaining at 15 uM in absence of NADPH incubated for 60 mins; format: ADME, Microsome; conditions: read-out: Stability
[17] = Effective permeability assessed as mass retention by PAMPA method; format: ADME
CYP2C9 = CYP2C9 (Homo sapiens, UniProt P11712); assay: Inhibition of CYP2C9 (unknown origin) at 10 uM relative to control; format: ADME
CYP2C9, sequence (P11712 whole entry): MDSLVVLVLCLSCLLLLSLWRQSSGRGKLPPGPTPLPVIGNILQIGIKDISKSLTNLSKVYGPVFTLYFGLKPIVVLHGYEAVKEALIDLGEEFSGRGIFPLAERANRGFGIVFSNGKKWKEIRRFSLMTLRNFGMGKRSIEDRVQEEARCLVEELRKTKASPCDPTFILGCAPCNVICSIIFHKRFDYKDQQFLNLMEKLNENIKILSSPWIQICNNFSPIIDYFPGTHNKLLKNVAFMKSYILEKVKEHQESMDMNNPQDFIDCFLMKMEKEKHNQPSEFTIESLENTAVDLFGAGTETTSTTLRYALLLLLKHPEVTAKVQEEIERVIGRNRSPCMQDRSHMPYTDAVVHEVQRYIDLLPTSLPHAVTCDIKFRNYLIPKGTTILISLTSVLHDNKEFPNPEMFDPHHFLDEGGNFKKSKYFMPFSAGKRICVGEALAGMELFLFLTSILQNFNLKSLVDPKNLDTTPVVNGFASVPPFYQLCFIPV

[18] = Dissociation constant, pKa of the compound (B(OH)2) by UV metric assay; format: physicochemical
[19] = Effective permeability from apical to basolateral side in PAMPA method; format: ADME; conditions: read-out: Peff
CYP2D6 = CYP2D6 (Homo sapiens, UniProt P10635); assay: Inhibition of CYP2D6 (unknown origin) at 10 uM relative to control; format: ADME
CYP2D6, sequence (P10635 whole entry): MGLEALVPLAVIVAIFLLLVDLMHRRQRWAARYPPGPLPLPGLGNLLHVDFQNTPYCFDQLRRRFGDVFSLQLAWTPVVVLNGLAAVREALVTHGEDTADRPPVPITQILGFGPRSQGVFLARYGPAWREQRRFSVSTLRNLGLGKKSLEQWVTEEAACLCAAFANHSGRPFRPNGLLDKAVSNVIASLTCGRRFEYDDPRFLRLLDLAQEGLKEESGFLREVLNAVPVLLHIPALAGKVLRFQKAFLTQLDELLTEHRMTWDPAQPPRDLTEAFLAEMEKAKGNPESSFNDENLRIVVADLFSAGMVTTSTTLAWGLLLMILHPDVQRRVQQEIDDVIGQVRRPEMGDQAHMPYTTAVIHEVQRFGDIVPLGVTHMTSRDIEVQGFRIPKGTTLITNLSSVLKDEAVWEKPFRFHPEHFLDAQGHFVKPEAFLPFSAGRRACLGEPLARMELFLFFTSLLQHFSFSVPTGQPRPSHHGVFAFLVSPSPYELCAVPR

CYP1A2 = biological target: T2, CYP1A2 (Homo sapiens, UniProt P05177); assay: Inhibition of CYP1A2 (unknown origin) at 10 uM relative to control; format: ADME
T2 sequence (P05177 whole entry): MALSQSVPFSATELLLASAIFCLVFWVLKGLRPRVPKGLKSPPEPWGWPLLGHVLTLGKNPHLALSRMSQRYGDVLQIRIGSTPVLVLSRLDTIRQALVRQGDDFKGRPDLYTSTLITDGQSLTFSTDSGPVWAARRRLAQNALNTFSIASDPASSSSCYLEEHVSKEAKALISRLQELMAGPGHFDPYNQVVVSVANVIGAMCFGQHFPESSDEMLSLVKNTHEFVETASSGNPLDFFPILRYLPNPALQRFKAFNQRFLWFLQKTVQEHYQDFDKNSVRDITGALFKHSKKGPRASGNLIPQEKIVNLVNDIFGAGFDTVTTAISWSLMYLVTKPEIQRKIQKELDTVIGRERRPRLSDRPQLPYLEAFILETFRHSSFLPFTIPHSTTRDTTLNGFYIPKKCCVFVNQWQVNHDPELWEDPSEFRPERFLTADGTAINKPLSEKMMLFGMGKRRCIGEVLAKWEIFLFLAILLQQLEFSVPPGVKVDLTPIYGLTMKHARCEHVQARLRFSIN

[20] = Dissociation constant, pKa of the compound (B(OH)2) by pH metric assay; format: physicochemical
CYP3A4 = CYP3A4 (Homo sapiens, UniProt P08684); assay: Inhibition of CYP3A4 (unknown origin) at 10 uM relative to control; format: ADME
CYP3A4, sequence (P08684 whole entry): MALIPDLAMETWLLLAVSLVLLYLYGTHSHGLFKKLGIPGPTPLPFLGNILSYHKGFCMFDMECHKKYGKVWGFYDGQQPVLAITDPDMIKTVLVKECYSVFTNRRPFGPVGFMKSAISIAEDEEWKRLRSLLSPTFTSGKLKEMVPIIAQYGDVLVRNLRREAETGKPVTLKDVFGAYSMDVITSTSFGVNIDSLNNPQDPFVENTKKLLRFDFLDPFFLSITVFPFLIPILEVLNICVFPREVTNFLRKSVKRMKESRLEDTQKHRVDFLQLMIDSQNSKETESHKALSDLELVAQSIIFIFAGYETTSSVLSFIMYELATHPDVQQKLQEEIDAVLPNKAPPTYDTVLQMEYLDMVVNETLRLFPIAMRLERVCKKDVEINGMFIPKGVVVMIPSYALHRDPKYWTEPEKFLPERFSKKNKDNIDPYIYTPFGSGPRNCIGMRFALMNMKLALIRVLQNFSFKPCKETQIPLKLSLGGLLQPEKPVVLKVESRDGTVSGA

[21] = Stability in mouse liver microsomes assessed as parent compound remaining at 15 uM in absence of NADPH incubated for 60 mins; format: ADME, Microsome; conditions: read-out: Stability
[22] = Stability in mouse liver microsomes assessed as parent compound remaining at 15 uM in presence of NADPH incubated for 60 mins; format: ADME, Microsome; conditions: read-out: Stability
CYP2C19 = CYP2C19 (Homo sapiens, UniProt P33261); assay: Inhibition of CYP2C19 (unknown origin) at 10 uM relative to control; format: ADME
CYP2C19, sequence (P33261 whole entry): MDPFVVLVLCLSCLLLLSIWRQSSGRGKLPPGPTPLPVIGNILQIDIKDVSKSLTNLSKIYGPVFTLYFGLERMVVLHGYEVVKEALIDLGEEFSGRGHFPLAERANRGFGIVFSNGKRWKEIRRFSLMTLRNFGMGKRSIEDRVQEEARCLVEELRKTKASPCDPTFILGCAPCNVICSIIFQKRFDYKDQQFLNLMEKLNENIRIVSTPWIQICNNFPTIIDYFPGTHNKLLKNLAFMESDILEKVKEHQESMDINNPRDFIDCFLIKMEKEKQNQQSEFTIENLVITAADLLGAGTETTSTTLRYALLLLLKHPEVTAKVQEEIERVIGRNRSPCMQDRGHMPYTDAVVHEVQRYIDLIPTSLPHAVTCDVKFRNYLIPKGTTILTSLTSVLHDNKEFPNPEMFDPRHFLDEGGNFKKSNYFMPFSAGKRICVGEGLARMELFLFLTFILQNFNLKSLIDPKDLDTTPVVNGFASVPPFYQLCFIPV

[23] = Plasma concentration in mouse xenografted with human HMC1 cells at 10 mg/kg, iv dosed at time 0 and again 24 hrs later and measured at 24 hrs after second dose by LC-MS/MS analysis; format: ADME, organism-based
[24] = Drug concentration in tumor of mouse xenografted with human HMC1 cells at 10 mg/kg, iv dosed at time 0 and again 24 hrs later and measured at 2 hrs after second dose by LC-MS/MS analysis; format: ADME, organism-based, Neoplasm; conditions: read-out: Drug uptake
[25] = Drug concentration in tumor of mouse xenografted with human HMC1 cells at 10 mg/kg, iv dosed at time 0 and again 24 hrs later and measured at 0 hrs after second dose by LC-MS/MS analysis; format: ADME, organism-based, Neoplasm; conditions: read-out: Drug uptake
[26] = Plasma concentration in mouse xenografted with human HMC1 cells at 10 mg/kg, iv dosed at time 0 and again 24 hrs later and measured at 2 hrs after second dose by LC-MS/MS analysis; format: ADME, organism-based
[27] = Plasma concentration in mouse xenografted with human HMC1 cells at 10 mg/kg, iv dosed at time 0 and again 24 hrs later and measured at 8 hrs after second dose by LC-MS/MS analysis; format: ADME, organism-based
[28] = Drug concentration in tumor of mouse xenografted with human HMC1 cells at 10 mg/kg, iv dosed at time 0 and again 24 hrs later and measured at 8 hrs after second dose by LC-MS/MS analysis; format: ADME, organism-based, Neoplasm; conditions: read-out: Drug uptake
[29] = Drug concentration in tumor of mouse xenografted with human HMC1 cells at 10 mg/kg, iv dosed at time 0 and again 24 hrs later and measured at 24 hrs after second dose by LC-MS/MS analysis; format: ADME, organism-based, Neoplasm; conditions: read-out: Drug uptake
[30] = Clearance in C57BL/6 mouse at 5 mg/kg, iv measured over 0.25 to 24 hrs by LC-MS/MS analysis; format: ADME, organism-based; conditions: in vivo

SMILES	remaining at 1 h, 15 µM [1] [%]	remaining at 1 h, 15 µM [2] [%]	IC50 [4] [nM]	IC50 (Tryptase beta-2) [nM]	remaining at 1 h, 15 µM [3] [%]	also measured
CONC(=O)c1cc(C(=O)N2CCC3(CC2)COc2ccc(CN)cc23)ccc1O	67	87	570	2160		Stability [3]: Stable
CSc1sc(C(=O)N2CCC3(CC2)COc2ccc(CN)cc23)cc1-c1cccc2c1COB2O			18			Stability [1]: Stable; Stability [2]: Stable; Stability [3]: Stable
CONC(=O)c1ccc(C(=O)N2CCC3(CC2)COc2ccc(CN)cc23)cc1O			43.4			Stability [1]: Stable; Stability [2]: Stable; Stability [3]: Stable
NCc1ccc2c(c1)C1(CCN(C(=O)c3cc(O)c(O)c(Cl)c3)CC1)CO2 [listing 1 of 2 here]			238	11700		Time [5]: 24 h; half-life [6]: > 360 min; Time [7]: 8 h; solubility [8]: Soluble; Tmax [9]: 15 min
NCc1ccc2c(c1)C1(CCN(C(=O)c3cccc(-c4cccc(B(O)O)c4)c3)CC1)CO2 [listing 1 of 2 here]						inhibition (HMC1 [10]): Active; inhibition (HMC1 [11]): inactive; inhibition (Homo sapiens): inactive; inhibition (Mus musculus): Active
NCc1ccc2c(c1)C1(CCN(C(=O)c3ccc(CO)c(O)c3)CC1)CO2			656	4690		Stability [1]: Stable; Stability [2]: Stable; Stability [3]: Stable
NCc1ccc2c(c1)C1(CCN(C(=O)c3cccc(-c4cccc(B(O)O)c4)c3)CC1)CO2 [listing 2 of 2 here]	94	96	1220	1140	85	Time [5]: 8 h; half-life [6]: > 360 min; logD [12]: 1.22; Time [7]: 24 h; solubility [8]: Soluble; Tmax [9]: 30 min
NCc1ccc2c(c1)C1(CCN(C(=O)c3cc(O)c(O)c(Cl)c3)CC1)CO2 [listing 2 of 2 here]						inhibition (HMC1 [10]): Active; inhibition (HMC1 [11]): inactive; inhibition (Homo sapiens): inactive; inhibition (Mus musculus): Active
NCc1ccc2c(c1)C1(CCN(C(=O)c3cccc(-c4cccc5c4COB5O)c3)CC1)CO2	82	82	1500	2890		logD [12]: 1.69; inhibition (Mus musculus): inactive
CSc1sc(C(=O)N2CCC(c3cccc(CN)c3)CC2)cc1-c1cccc2c1COB2O			14.2			
NCc1cccc(C2CCN(C(=O)c3cccc4ccc(B(O)O)cc34)CC2)c1		100	15800		97	remaining at 1 h, 15 µM [13]: 100%; pKa [14]: 9.53; Papp A→B [15]: 0.28 ×10⁻⁶ cm/s; remaining at 1 h, 15 µM [16]: 100%; Activity [17]: 96.2%; inhibition at 10 µM (CYP2C9): 97%; pKa [18]: 8.51; Papp [19]: 2.06 ×10⁻⁶ cm/s; inhibition at 10 µM (CYP2D6): 79%; inhibition at 10 µM (CYP1A2): 45%; pKa [20]: 8.18; inhibition at 10 µM (CYP3A4): 27%; remaining at 1 h, 15 µM [21]: 100%; remaining at 1 h, 15 µM [22]: 99%; inhibition at 10 µM (CYP2C19): 80%
NCc1ccc2c(c1)C1(CCN(C(=O)c3cc(O)c(O)c(Cl)c3)CC1)CO2.O=C(O)C(F)(F)F						concentration at 24 h [23]: 0.02 nM; concentration at 2 h [24]: 314 nM; concentration at 0 h [25]: 17.6 nM; concentration at 2 h [26]: 311 nM; concentration at 8 h [27]: 1.28 nM; concentration at 8 h [28]: 58.6 nM; concentration at 24 h [29]: 8.64 nM
NCc1cccc(C2CCN(C(=O)/C=C/c3ccc4c(c3)OB(c3ccc5cccc(C(=O)N6CCC(c7cccc(CN)c7)CC6)c5c3)O4)CC2)c1			411			
CONC(=O)c1cc(C(=O)N2CCC(c3cccc(CN)c3)CC2)ccc1O	68	84	3310	455	81	
CONC(=O)c1ccc(C(=O)N2CCC(c3cccc(CN)c3)CC2)cc1O			120			Stability [1]: Stable; Stability [2]: Stable; Stability [3]: Stable
NCc1cccc(C2CCN(C(=O)c3ccc(O)c(O)c3)CC2)c1	53	52	452	2310	43	half-life [6]: 45.6 min; clearance [30]: 519 mL/min/kg
NCc1ccc2c(c1)C1(CCN(C(=O)c3ccc(O)c(O)c3)CC1)CO2	87		635	2540	94	Stability [2]: Stable
COc1cc(C(=O)N2CCC(c3cccc(CN)c3)CC2)cc(O)c1O			925	7430		
Cc1cc(C(=O)N2CCC3(CC2)COc2ccc(CN)cc23)cc(-c2cccc(B(O)O)c2)c1C			1360			
Cc1cc(C(=O)N2CCC(c3cccc(CN)c3)CC2)cc(-c2cccc(B(O)O)c2)c1C			1250			
NCc1ccc2c(c1)C1(CCN(C(=O)c3ccc(Cl)c(-c4cccc(B(O)O)c4)c3)CC1)CO2			1100	599		
NCc1cccc(C2CCN(C(=O)c3cccc(-c4cccc(B(O)O)c4)c3)CC2)c1	1	2	843	1420	1	half-life [6]: 216 min; clearance [30]: 52.5 mL/min/kg
NCc1cccc(C2CCN(C(=O)c3cc(O)c(O)c(Cl)c3)CC2)c1	18	29	339	17500	28	
NCc1cccc(C2CCN(C(=O)c3ccc(CO)c(O)c3)CC2)c1	81	68	65.8	1550	63	
COc1cc(C(=O)N2CCC3(CC2)COc2ccc(CN)cc23)cc(O)c1O	72	74	953	11800		Stability [3]: Stable
